Laboratory results taken from ChEMBL document CHEMBL1201862, “PubChem BioAssay data set” (2004).
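A five-concentration, 48-hour dose response in 96-well plates underlies each endpoint, interpolated linearly between surrounding concentrations. Here, GI50 denotes the concentration required for 50% inhibition of growth.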 Active and inactive are the calls of the source. Cut-off read from the data, not from the text of the source: active = GI50 up to about 1.1 µM and inactive = higher.

Legend:
Assay in all cases: NCI anticancer screen, dose series, 48 h
[1] = test system: Hs-578T
[2] = test system: OVCAR-5
[3] = test system: UO-31
[4] = test system: SK-OV-3
[5] = test system: KM12
[6] = test system: SF-539
[7] = test system: HL-60
[8] = test system: SNB-19
[9] = test system: SNB-75
[10] = test system: SF-295
[11] = test system: MDA-MB-231
[12] = test system: HCT-15
[13] = test system: NCI-H522
[14] = test system: SK-MEL-5
[15] = test system: HCT-116
[16] = test system: HOP-92
[17] = test system: Malme-3M
[18] = test system: A498
[19] = test system: IGROV-1
[20] = test system: MDA-MB-435
[21] = test system: U-251
[22] = test system: NCI-H226
[23] = test system: MCF7
[24] = test system: CAKI-1
[25] = test system: SW-620
[26] = test system: COLO 205
[27] = test system: M14
[28] = test system: RXF 393
[29] = test system: HT-29
[30] = test system: SN12C
[31] = test system: SK-MEL-2
[32] = test system: UACC-257
[33] = test system: NCI-H23
[34] = test system: NCI-H460
[35] = test system: UACC-62
[36] = test system: TK-10
[37] = test system: OVCAR-3
[38] = test system: HOP-62
[39] = test system: SK-MEL-28
[40] = test system: ACHN
[41] = test system: 786-0
[42] = test system: K562
[43] = test system: SF-268
[44] = test system: MOLT-4
[45] = test system: SR
[46] = test system: T47D
[47] = test system: OVCAR-4
[48] = test system: PC-3
[49] = test system: A549
[50] = test system: RPMI-8226
[51] = test system: OVCAR-8
[52] = test system: DU-145
[53] = test system: NCI/ADR-RES
[54] = test system: EKVX
[55] = test system: HCC 2998
[56] = test system: MDA-N
[57] = test system: CCRF-CEM
[58] = test system: LOX IMVI

With `Cc1ccc([Se](=C(C(=O)c2ccccc2)C(=O)c2ccccc2)c2ccc(C)cc2)cc1` the GI50 [1] was 22.8 µM (inactive), the GI50 [2] was 38.8 µM (inactive) and the GI50 [3] was 30.4 µM (inactive). The GI50 [4] was 43.7 µM (inactive), the GI50 [5] was 18.9 µM (inactive) and the GI50 [6] was 25.6 µM (inactive). For the same compound, the GI50 [7] was 21.3 µM (inactive), the GI50 [8] was 27.4 µM (inactive) and the GI50 [9] was 37.8 µM (inactive). The GI50 [10] was 22.3 µM (inactive), the GI50 [11] was 15.8 µM (inactive) and the GI50 [12] was 16.9 µM. The GI50 [13] was 22.1 µM (inactive), the GI50 [14] was 18.7 µM (inactive) and the GI50 [15] was 34.4 µM (inactive). The GI50 [16] was 15 µM (inactive), the GI50 [17] was 18.4 µM (inactive) and the GI50 [18] was 14.8 µM (inactive). The GI50 [19] was 19.6 µM (inactive), the GI50 [20] was 20.5 µM (inactive) and the GI50 [21] was 20.6 µM (inactive). The GI50 [22] was 20.2 µM (inactive), the GI50 [23] was 26.7 µM (inactive) and the GI50 [24] was 19.5 µM (inactive). The GI50 [25] was 29.5 µM (inactive), the GI50 [26] was 17.3 µM (inactive) and the GI50 [27] was 33.6 µM (inactive). The GI50 [28] was 68.1 µM (inactive), the GI50 [29] was 18.7 µM (inactive) and the GI50 [30] was 12.8 µM (inactive). For the same compound, the GI50 [31] was 30.8 µM (inactive), the GI50 [32] was 17.5 µM (inactive) and the GI50 [33] was 18.8 µM (inactive). For the same compound, the GI50 [34] was 25.5 µM (inactive), the GI50 [35] was 20.7 µM (inactive) and the GI50 [36] was 23.4 µM (inactive). The GI50 [37] was 20.6 µM (inactive), the GI50 [38] was 48 µM (inactive) and the GI50 [39] was 31 µM (inactive). For the same compound, the GI50 [40] was 24.5 µM (inactive), the GI50 [41] was 38.3 µM (inactive) and the GI50 [42] was 28.8 µM (inactive). The GI50 [43] was 35.3 µM (inactive), the GI50 [44] was 16 µM (inactive) and the GI50 [45] was 12.7 µM (inactive). For the same compound, the GI50 [46] was 34.3 µM (inactive), the GI50 [47] was 16.4 µM (inactive) and the GI50 [48] was 23.3 µM (inactive). For the same compound, the GI50 [49] was 25.3 µM (inactive), the GI50 [50] was 4.14 µM (inactive) and the GI50 [51] was 26.4 µM (inactive). For the same compound, the GI50 [52] was 38.7 µM (inactive) and the GI50 [53] was 34.3 µM (inactive).
In the case of `CNc1ccc(C(=O)CC(O)CCC(C)C2OC(=O)CC(O)CC(=O)CC(O)CC(O)CC(O)CC(O)CC3(O)CC(O)C(C(=O)NCCN4CCCCC4)C(CC(OC4OC(C)C(O)C(N)C4O)\C=C/C=C\C=C/C=C/C=C/C=C\C=C/C2C)O3)cc1` (stereo not given), the GI50 [5] is reported as 1.82 µM (inactive), the GI50 [7] is reported as 3.88 µM (inactive) and the GI50 [18] is reported as 0.288 µM (active). The GI50 [20] was 1.01 µM (active), the GI50 [42] was 2.07 µM (inactive) and the GI50 [45] was 0.272 µM (active).
`CC1=NN(c2cccc(Cl)c2)C(=N/c2nc3ccccc3s2)/C1=C\c1ccc(Cl)cc1` was tested, and the GI50 [1] was 23 µM (inactive), the GI50 [2] was 22.6 µM (inactive) and the GI50 [3] was 23.9 µM (inactive). For the same compound, the GI50 [4] was 36.4 µM (inactive), the GI50 [6] was 18.4 µM (inactive) and the GI50 [7] was 22.4 µM (inactive). The GI50 [9] was 26.4 µM (inactive), the GI50 [10] was 23.4 µM (inactive) and the GI50 [11] was 20.7 µM (inactive). For the same compound, the GI50 [12] was 14.2 µM, the GI50 [13] was 18.7 µM (inactive) and the GI50 [14] was 15.8 µM (inactive). For the same compound, the GI50 [54] was 33.2 µM (inactive), the GI50 [15] was 16.9 µM (inactive) and the GI50 [16] was 17.4 µM (inactive). The GI50 [55] was 16.4 µM (inactive), the GI50 [18] was 22.2 µM (inactive) and the GI50 [19] was 13.5 µM (inactive). For the same compound, the GI50 [21] was 14.8 µM (inactive), the GI50 [22] was 21.2 µM (inactive) and the GI50 [23] was 22.2 µM (inactive). The GI50 [25] was 19.9 µM (inactive), the GI50 [27] was 23.8 µM (inactive) and the GI50 [28] was 20.3 µM (inactive). For the same compound, the GI50 [29] was 17.9 µM (inactive), the GI50 [31] was 17.9 µM (inactive) and the GI50 [32] was 20.7 µM (inactive). For the same compound, the GI50 [33] was 18.7 µM (inactive), the GI50 [34] was 17.2 µM (inactive) and the GI50 [36] was 26.4 µM (inactive). For the same compound, the GI50 [37] was 21.7 µM (inactive), the GI50 [38] was 21.5 µM (inactive) and the GI50 [39] was 20.8 µM (inactive). The GI50 [40] was 24.3 µM (inactive), the GI50 [41] was 18.8 µM (inactive) and the GI50 [56] was 23.4 µM (inactive). For the same compound, the GI50 [42] was 29 µM (inactive), the GI50 [43] was 19.3 µM (inactive) and the GI50 [44] was 24.4 µM (inactive). The GI50 [45] was 24.7 µM (inactive), the GI50 [46] was 33.6 µM (inactive) and the GI50 [48] was 16.4 µM (inactive). For the same compound, the GI50 [50] was 37.2 µM (inactive), the GI50 [51] was 19.8 µM (inactive) and the GI50 [52] was 34.2 µM (inactive). For the same compound, the GI50 [57] was 26.1 µM (inactive), the GI50 [53] was 22.5 µM (inactive) and the GI50 [58] was 18.2 µM (inactive).
`c1ccc2c(c1)c1c(n2CCOCCN2CCCCC2)CCCC1` was tested, and the GI50 [1] was 14.5 µM (inactive), the GI50 [2] was 12.3 µM (inactive) and the GI50 [3] was 11.1 µM (inactive). For the same compound, the GI50 [4] was 18.7 µM (inactive), the GI50 [5] was 13 µM (inactive) and the GI50 [6] was 16.6 µM (inactive). The GI50 [7] was 2.37 µM (inactive), the GI50 [9] was 11.6 µM (inactive) and the GI50 [10] was 16.2 µM (inactive). The GI50 [11] was 11.8 µM (inactive), the GI50 [12] was 14.1 µM and the GI50 [14] was 8.43 µM (inactive). For the same compound, the GI50 [54] was 16.9 µM (inactive), the GI50 [15] was 12.5 µM (inactive) and the GI50 [16] was 8.2 µM (inactive). The GI50 [17] was 13.1 µM (inactive), the GI50 [55] was 11.5 µM (inactive) and the GI50 [19] was 13.9 µM (inactive). The GI50 [20] was 12.8 µM (inactive), the GI50 [21] was 16.9 µM (inactive) and the GI50 [22] was 21.7 µM (inactive). For the same compound, the GI50 [23] was 13.7 µM (inactive), the GI50 [25] was 17.3 µM (inactive) and the GI50 [26] was 11.1 µM (inactive). The GI50 [27] was 12.8 µM (inactive), the GI50 [29] was 11.6 µM (inactive) and the GI50 [30] was 13.7 µM (inactive). For the same compound, the GI50 [31] was 8.77 µM (inactive), the GI50 [32] was > 10 µM (inactive) and the GI50 [33] was 15.2 µM (inactive). For the same compound, the GI50 [34] was 11.9 µM (inactive), the GI50 [35] was 15 µM (inactive) and the GI50 [36] was 14.3 µM (inactive). For the same compound, the GI50 [37] was 9.75 µM (inactive), the GI50 [38] was 15.1 µM (inactive) and the GI50 [39] was 24.6 µM (inactive). The GI50 [40] was 14.2 µM (inactive), the GI50 [41] was 13.4 µM (inactive) and the GI50 [56] was 14.8 µM (inactive). For the same compound, the GI50 [42] was 6.18 µM (inactive), the GI50 [43] was 16.9 µM (inactive) and the GI50 [44] was 10.5 µM (inactive). For the same compound, the GI50 [45] was 13.8 µM (inactive), the GI50 [46] was 13.4 µM (inactive) and the GI50 [47] was 11.1 µM (inactive). For the same compound, the GI50 [48] was 9.04 µM (inactive), the GI50 [49] was 15.1 µM (inactive) and the GI50 [50] was 9.29 µM (inactive). For the same compound, the GI50 [51] was 14 µM (inactive), the GI50 [52] was 17.1 µM (inactive) and the GI50 [57] was 12.4 µM (inactive). The GI50 [53] was 10.1 µM (inactive) and the GI50 [58] was 13.3 µM (inactive).
